From ChEMBL document CHEMBL1140398, “New dual inhibitors of EGFR and HER2 protein tyrosine kinases” (Bioorg Med Chem Lett, 2005)

Key:
[1] = target: Epidermal growth factor receptor (Homo sapiens, UniProt P00533); assay: In vitro inhibitory concentration against EGFR cytoplasmic sequence expressed in Sf9 cells
[2] = target: Receptor tyrosine-protein kinase erbB-2 (Homo sapiens, UniProt P04626); assay: In vitro inhibitory concentration against HER2 cytoplasmic sequence expressed in Sf9 cells
[3] = target: MAP kinase-activated protein kinase 2 (Homo sapiens, UniProt P49137); assay: Inhibitory concentration against MAPKAP kinase 2 cytoplasmic sequence; Reported as mean (variability <15%)
[4] = target: Insulin-like growth factor 1 receptor (Homo sapiens, UniProt P08069); assay: Inhibitory concentration against IGF-1R cytoplasmic sequence; Reported as mean (variability <15%)
[5] = target: Hepatocyte growth factor receptor (Homo sapiens, UniProt P08581); assay: Inhibitory concentration against Met cytoplasmic sequence; Reported as mean (variability <15%)
Focal adhesion kinase 1 = Focal adhesion kinase 1 (Homo sapiens, UniProt Q05397); assay: Inhibitory concentration against FAK cytoplasmic sequence; Reported as mean (variability <15%)
[6] = target: Mitogen-activated protein kinase 14 (Homo sapiens, UniProt Q16539); assay: Inhibitory concentration against p38 cytoplasmic sequence; Reported as mean (variability <15%)
Sequence of Mitogen-activated protein kinase 14 (Q16539 whole entry): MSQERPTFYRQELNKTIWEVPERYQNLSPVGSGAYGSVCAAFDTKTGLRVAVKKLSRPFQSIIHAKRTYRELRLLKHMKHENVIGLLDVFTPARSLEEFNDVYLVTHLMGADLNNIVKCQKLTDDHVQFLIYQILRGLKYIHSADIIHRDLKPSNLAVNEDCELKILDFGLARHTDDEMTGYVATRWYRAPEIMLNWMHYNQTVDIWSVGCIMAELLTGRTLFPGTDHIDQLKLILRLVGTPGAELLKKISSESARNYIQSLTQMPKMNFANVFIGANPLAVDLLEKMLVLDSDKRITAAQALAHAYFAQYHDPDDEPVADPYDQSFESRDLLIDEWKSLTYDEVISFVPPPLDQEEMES

Sequence of Epidermal growth factor receptor (P00533 whole entry): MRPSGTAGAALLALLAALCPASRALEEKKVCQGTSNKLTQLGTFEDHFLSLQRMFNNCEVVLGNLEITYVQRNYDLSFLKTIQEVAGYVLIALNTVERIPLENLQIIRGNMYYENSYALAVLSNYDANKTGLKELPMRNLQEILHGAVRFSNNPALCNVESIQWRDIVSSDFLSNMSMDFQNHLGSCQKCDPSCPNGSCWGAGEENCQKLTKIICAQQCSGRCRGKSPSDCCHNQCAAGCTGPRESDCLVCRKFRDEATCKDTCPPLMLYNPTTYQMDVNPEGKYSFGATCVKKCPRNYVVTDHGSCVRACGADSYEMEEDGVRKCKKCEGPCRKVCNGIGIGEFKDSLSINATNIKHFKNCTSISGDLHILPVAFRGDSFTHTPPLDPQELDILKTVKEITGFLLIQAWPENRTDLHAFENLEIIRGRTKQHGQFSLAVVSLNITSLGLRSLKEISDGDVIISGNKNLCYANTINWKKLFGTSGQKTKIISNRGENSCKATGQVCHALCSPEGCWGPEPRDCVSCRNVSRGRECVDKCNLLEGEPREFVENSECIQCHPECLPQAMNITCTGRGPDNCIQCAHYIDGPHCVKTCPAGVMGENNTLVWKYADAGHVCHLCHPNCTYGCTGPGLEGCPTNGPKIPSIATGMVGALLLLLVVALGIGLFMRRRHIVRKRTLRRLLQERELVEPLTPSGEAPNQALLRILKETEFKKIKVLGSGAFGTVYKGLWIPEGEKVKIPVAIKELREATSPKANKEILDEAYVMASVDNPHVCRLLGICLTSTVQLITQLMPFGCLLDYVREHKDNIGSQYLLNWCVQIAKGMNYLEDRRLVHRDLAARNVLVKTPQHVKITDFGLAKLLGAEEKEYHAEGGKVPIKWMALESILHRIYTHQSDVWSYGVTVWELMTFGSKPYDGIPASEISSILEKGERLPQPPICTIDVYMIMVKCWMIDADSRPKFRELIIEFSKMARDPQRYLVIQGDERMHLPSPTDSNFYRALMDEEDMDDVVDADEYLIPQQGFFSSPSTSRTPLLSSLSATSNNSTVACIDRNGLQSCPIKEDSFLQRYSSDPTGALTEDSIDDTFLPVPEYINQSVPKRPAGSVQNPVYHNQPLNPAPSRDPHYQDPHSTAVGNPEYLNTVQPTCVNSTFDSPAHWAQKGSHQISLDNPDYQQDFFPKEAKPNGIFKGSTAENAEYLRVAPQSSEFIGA
Sequence of Receptor tyrosine-protein kinase erbB-2 (P04626 whole entry): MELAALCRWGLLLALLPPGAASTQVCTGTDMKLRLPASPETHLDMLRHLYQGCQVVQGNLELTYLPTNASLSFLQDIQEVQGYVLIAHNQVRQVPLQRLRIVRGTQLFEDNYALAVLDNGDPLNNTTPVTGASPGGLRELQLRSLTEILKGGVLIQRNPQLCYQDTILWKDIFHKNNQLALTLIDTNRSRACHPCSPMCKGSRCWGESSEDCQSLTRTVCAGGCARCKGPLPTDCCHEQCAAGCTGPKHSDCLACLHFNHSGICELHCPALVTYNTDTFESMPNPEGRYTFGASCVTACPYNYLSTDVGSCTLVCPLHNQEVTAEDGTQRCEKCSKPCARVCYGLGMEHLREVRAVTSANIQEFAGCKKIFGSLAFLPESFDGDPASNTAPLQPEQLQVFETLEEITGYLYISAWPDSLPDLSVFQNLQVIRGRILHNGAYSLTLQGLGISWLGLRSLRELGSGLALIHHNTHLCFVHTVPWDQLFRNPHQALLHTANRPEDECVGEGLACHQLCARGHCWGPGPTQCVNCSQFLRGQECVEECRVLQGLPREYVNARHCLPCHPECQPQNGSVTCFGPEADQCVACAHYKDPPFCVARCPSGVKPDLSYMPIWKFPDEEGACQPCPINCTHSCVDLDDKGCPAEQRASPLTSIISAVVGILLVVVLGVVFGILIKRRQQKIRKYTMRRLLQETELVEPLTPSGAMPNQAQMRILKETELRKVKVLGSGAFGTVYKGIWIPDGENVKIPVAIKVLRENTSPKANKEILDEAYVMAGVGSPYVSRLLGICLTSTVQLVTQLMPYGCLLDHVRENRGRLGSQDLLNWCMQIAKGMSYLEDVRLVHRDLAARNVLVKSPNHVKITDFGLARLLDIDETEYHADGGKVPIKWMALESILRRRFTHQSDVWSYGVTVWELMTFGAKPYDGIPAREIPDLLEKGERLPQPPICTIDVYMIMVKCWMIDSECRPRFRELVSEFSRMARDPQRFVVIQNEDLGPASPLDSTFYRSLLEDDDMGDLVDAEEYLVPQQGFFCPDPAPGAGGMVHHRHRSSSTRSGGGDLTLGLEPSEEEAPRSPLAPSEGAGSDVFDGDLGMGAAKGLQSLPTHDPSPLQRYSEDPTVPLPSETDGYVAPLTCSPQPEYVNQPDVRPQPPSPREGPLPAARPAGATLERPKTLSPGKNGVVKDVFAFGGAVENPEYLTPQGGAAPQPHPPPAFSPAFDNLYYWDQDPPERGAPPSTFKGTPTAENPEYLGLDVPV
Sequence of MAP kinase-activated protein kinase 2 (P49137 whole entry): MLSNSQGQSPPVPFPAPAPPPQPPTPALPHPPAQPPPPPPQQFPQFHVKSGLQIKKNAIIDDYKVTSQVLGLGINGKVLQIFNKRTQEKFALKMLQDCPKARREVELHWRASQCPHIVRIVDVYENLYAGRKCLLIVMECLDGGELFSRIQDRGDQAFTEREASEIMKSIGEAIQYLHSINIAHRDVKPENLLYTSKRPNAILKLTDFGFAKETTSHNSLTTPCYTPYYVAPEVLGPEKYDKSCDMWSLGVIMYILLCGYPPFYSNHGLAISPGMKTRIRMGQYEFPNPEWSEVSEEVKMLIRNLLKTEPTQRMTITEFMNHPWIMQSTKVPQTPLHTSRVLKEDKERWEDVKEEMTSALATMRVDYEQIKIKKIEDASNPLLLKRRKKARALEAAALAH
Sequence of Hepatocyte growth factor receptor (P08581 whole entry): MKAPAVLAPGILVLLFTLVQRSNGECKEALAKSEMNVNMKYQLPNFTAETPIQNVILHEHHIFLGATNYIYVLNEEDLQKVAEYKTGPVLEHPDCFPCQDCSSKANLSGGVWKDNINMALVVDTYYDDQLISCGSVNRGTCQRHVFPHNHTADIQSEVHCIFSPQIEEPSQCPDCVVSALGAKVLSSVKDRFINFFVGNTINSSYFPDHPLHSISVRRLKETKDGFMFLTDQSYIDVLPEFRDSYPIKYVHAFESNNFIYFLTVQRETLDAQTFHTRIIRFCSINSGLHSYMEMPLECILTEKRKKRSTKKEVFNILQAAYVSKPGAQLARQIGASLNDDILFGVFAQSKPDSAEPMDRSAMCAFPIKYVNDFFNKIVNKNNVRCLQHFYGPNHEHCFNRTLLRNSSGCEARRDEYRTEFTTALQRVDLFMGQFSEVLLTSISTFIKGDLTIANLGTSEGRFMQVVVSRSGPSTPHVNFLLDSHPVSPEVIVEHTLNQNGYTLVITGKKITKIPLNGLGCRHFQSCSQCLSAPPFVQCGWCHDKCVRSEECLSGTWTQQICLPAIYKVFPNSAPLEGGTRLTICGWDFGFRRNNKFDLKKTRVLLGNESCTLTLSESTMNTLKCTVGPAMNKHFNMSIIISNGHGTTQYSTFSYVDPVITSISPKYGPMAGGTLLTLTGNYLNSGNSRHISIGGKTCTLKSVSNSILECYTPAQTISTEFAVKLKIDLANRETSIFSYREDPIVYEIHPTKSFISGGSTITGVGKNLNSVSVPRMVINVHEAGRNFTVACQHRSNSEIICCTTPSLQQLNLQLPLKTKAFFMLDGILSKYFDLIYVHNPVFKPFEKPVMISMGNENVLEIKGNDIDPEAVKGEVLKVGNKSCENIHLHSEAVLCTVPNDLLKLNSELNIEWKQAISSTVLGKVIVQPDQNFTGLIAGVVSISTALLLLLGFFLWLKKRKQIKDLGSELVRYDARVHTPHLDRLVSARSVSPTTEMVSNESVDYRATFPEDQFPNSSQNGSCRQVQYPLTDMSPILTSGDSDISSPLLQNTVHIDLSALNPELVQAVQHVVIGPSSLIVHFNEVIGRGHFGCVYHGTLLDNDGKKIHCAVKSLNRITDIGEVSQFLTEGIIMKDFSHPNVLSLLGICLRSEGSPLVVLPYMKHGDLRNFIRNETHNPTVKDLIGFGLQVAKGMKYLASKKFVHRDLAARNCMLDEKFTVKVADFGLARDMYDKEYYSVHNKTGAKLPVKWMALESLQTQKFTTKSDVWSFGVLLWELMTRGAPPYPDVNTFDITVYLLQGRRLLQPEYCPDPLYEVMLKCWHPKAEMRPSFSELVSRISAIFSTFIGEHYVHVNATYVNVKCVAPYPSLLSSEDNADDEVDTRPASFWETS

| IC50 [1] [nM] | IC50 [2] [nM] | SMILES | further results |
| --- | --- | --- | --- |
| 120 | 180 | CCOC(=O)c1cn2ncnc(Nc3ccc4c(cnn4Cc4ccccc4)c3)c2c1CC | – |
| 200 | 210 | CCOC(=O)c1cn2ncnc(Nc3ccc4c(cnn4Cc4ccccc4)c3)c2c1C(C)C | – |
| 1600 | 680 | CCc1c(CC(=O)O)cn2ncnc(Nc3ccc4c(cnn4Cc4ccccc4)c3)c12 | – |
| > 25000 | > 25000 | CCOC(=O)c1cn2ncnc(Nc3ccc4c(cnn4Cc4ccccc4)c3)c2c1Cc1ccccc1 | – |
| 90 | 2800 | CCOC(=O)c1cn2ncnc(Nc3ccc(F)c(Cl)c3)c2c1CC | – |
| 120 | 390 | CCOC(=O)c1cc2c(Nc3ccc4c(cnn4Cc4ccccc4)c3)ncnn2c1 | – |
| 1100 | 2400 | CCc1c(CC(N)=O)cn2ncnc(Nc3ccc4c(cnn4Cc4ccccc4)c3)c12 | – |
| 950 | 1200 | CCCc1c(C(=O)OCC)cn2ncnc(Nc3ccc4c(cnn4Cc4ccccc4)c3)c12 | – |
| 120 | 110 | CCc1c(C(N)=O)cn2ncnc(Nc3ccc4c(cnn4Cc4ccccc4)c3)c12 | – |
| 7400 | 9700 | CCNCc1cn2ncnc(Nc3ccc4c(cnn4Cc4ccccc4)c3)c2c1CC | – |
| 170 | 240 | CCc1c(C(=O)OCCCn2ccnc2)cn2ncnc(Nc3ccc4c(cnn4Cc4ccccc4)c3)c12 | – |
| 70 | 130 | CCc1c(C(=O)NC)cn2ncnc(Nc3ccc4c(cnn4Cc4ccccc4)c3)c12 | – |
| 210 | 170 | CCc1c(NC(=O)OCc2ccccc2)cn2ncnc(Nc3ccc4c(cnn4Cc4ccccc4)c3)c12 | – |
| 200 | 500 | CCc1c(C(=O)N(C)C)cn2ncnc(Nc3ccc4c(cnn4Cc4ccccc4)c3)c12 | – |
| 490 | 730 | CCc1c(CO)cn2ncnc(Nc3ccc4c(cnn4Cc4ccccc4)c3)c12 | – |
| 950 | 1400 | CCOCc1cn2ncnc(Nc3ccc4c(cnn4Cc4ccccc4)c3)c2c1CC | – |

| SMILES | IC50 [1] [nM] | IC50 [2] [nM] | further results |
| --- | --- | --- | --- |
| CCc1c(C(=O)O)cn2ncnc(Nc3ccc4c(cnn4Cc4ccccc4)c3)c12 | 20 | 40 | – |
| CCc1c(NC(=O)OCCn2ccnc2)cn2ncnc(Nc3ccc4c(cnn4Cc4ccccc4)c3)c12 | 40 | 40 | IC50 [3]: > 25000 nM; IC50 [4]: > 25000 nM; IC50 [5]: > 10000 nM; IC50 (Focal adhesion kinase 1): > 25000 nM; IC50 [6]: > 25000 nM |
| CCOC(=O)c1cn2ncnc(NCc3ccccc3)c2c1CC | 200 | 7200 | – |
| CCc1c(C(=O)NCCCn2ccnc2)cn2ncnc(Nc3ccc4c(cnn4Cc4ccccc4)c3)c12 | 40 | 30 | – |
| CCOC(=O)c1cn2ncnc(Nc3cccc(Br)c3)c2c1CC | 60 | 3000 | – |
| CCOC(=O)c1cn2ncnc(Nc3ccc(Oc4ccccc4)cc3)c2c1CC | 610 | 820 | – |
| CCOC(=O)c1cn2ncnc(Nc3ccc4[nH]ncc4c3)c2c1CC | – | 3300 | – |
